# Where a SMILES comes first, the peptide text is derived from it. Where no end group is shown, it is not given here. [ ]: non-standard residue; d: D form.
# Columns and labels:
# [1] = system: JEV
# [2] = system: ZIKV (Brazil/2016/INMI1 strain); assay: Dose-dependent effect on ZIKV infection of Vero E6 cells; type: cell-based, Zika virus; details: MOI of 1, Brazil/2016/INMI1 strain, fitted dose-response model
# Description: FIG 4 Amphipathicity was involved in the differences in potency between claudin-derived peptides. […] Three amino acids of interest at positions 11, 15, and 18 are indicated. (B) Sequences of the parental and modified peptides. The swapped amino acids are highlighted. (C) ZIKV (MOI of 1) was treated with 50 μM of the modified peptides described in (B) for 1 h. […] Left or right orientations of the helixes are indicated with an arrow and the hydrophobic faces of each peptide are shown with a black line. […] The dark line represents the fitted dose-response model for each peptide and the light area represents the 95% confidence interval of the model. The calculated IC50 is indicated.
# A D-enantiomer of an alpha helix forms a mirrored left-handed helix (Fig. 4D) but retains the same physicochemical properties ([28]).
# [3] = system: YFV
# [4] = system: ZIKV; assay: ZIKV internalization assay in hCMEC/D3 cells; type: cell-based, Zika virus; details: 2 h at 37°C
# [5] = system: ZIKV; assay: ZIKV binding assay on hCMEC/D3 cells; type: cell-based, Zika virus
# [6] = system: ZIKV; assay: ZIKV replication and production in TrHBMEC, HUVEC, A549 and HEK 293T cells; type: cell-based, Zika virus; details: 50 μM peptide, MOI of 1, HUVEC, RT-qPCR and titration
# [7] = system: ZIKV; assay: ZIKV viral production, supernatants of infected hCMEC/D3 cells titrated on Vero E6 cells; type: cell-based, Zika virus; details: 50 μM peptide, MOI of 1, titrated on Vero E6
# [8] = system: ZIKV; details: for IC50: read-out: IC50, ZIKV infection in hCMEC/D3, ZIKV MOI of 1, hCMEC/D3, fitted dose-response model, R^2 0.9 (CL1.1) and 0.7 (CL7.1)
# [9] = system: SARS-CoV-2; type: cell-based; details: 50 μM, Vero E6 cells, MOI of 1, 72 h, flow cytometry
# [10] = system: ZIKV E-mediated fusion; type: cell-based, Zika virus; details: C6/36 infected with ZIKV MOI of 2 for 48 h, acidification 2 h, fusion index
# [11] = system: Caco-2 epithelial cells; details: 50 μM, differentiated Caco-2 monolayers on Transwell, over 24 h, n = 3
# [12] = system: ZIKV; assay: Pretreatment of hCMEC/D3 cells with peptide before ZIKV infection; details: 10 μM for 1 h, cells washed, then ZIKV MOI of 1 for 48 h, hCMEC/D3, RT-qPCR
# [13] = system: HIV-1; details: 50 μM, human primary CD4+ T cells, 72 h, flow cytometry
# [14] = system: ZIKV; assay: Treatment of concentrated ZIKV stock followed by 30-fold dilution and infection of hCMEC/D3; details: ZIKV stock 1.5 × 10^7 PFU/mL treated with 10 μM for 1 h, diluted by a factor of 30, hCMEC/D3, 48 h
# [15] = system: HCV; set-up: method as in PMID 22378192; details: Huh7.5.1 cells; cited from earlier work
compound,measurement,setting,value
CC[C@@H](C)[C@@H](NC(=O)[C@@H](Cc1ccccc1)NC(=O)CNC(=O)[C@@H](CC(C)C)NC(=O)[C@@H](CC(C)C)NC(=O)[C@@H](CCC(N)=O)NC(=O)[C@@H](CC(C)C)NC(=O)CNC(=O)[C@@H](C)NC(=O)[C@@H](CC(N)=O)NC(=O)[C@@H](C)NC(=O)[C@H](N)CCSC)C(=O)N[C@H](CC(C)C)C(=O)N[C@H](C)C(=O)N[C@H](Cc1ccccc1)C(=O)N[C@H](CC(C)C)C(=O)NCC(=O)N[C@H](Cc1c[nH]c2ccccc12)C(=O)O [D-CL1.1] (H-[dM][dA][dN][dA]G[dL][dQ][dL][dL]G[dF][dI][dL][dA][dF][dL]G[dW]-OH; N-terminus and C-terminus assumed),antiviral properties against JEV compared with CL1.1,[1],comparable to that of CL1.1
same,IC50,[2],0.67 ± 0.04 µM
same,antiviral properties against YFV compared with CL1.1,"[3]; Vero E6, MOI of 1, increasing concentrations (Fig. S6)",comparable to that of CL1.1
"O=C(N/N=C/c1ccc(O)c(O)c1)c1cc2ccccc2cc1O [Dynasore, reference compound]",reduction of viral internalization,"[4]; 100 μM, positive control, hCMEC/D3",95%
Heparin [reference compound],reduction of viral binding,"[5]; 200 μg/mL, positive control, 1 h at 4°C, MOI of 10, hCMEC/D3",80%
MANAGLQLLGFILAFLGW [CL1.1],ZIKV replication and production,[6],undetectable
same,IC50,[2],0.71 ± 0.05 µM
same,IC50,"[3]; read-out: IC50, YFV, Vero E6, MOI of 1, YFV/17D strain, titration of supernatants",0.56 ± 0.05 µM
same,viral production (infectious particles in supernatants),[7],below the detection limit of the assay
same,intracellular viral RNA levels / impact on ZIKV infection,"[8]; 50 μM peptide, hCMEC/D3, MOI of 1, 48 h, RT-qPCR",below the threshold of detection
same,IC50,[8],~0.87 µM
same,antiviral activity against SARS-CoV-2 infection,[9],No antiviral activity
same,reduction of syncytium formation,[10]; 10 μM,80%
same,binding of ZIKV to hCMEC/D3 cells,"[5]; 10 μM, inoculum treated 1 h, adsorption 1 h at 4°C, MOI of 10, RT-qPCR",did not alter
same,electric transepithelial resistance,[11],did not alter
same,cell susceptibility to ZIKV after pretreatment of cells,[12],did not affect cell susceptibility to ZIKV
same,antiviral activity against HIV-1 infection,[13],No antiviral activity
same,reduction of intracellular viral RNA levels,[14],80%
same,ZIKV internalization in hCMEC/D3 cells,"[4]; 10 μM, trypsin removal of surface virus, RT-qPCR",did not alter
same,antiviral activity against HCV infection,[15],exhibited antiviral activity
MANSGLQLLGFSMALLGW [CL7.1],ZIKV replication and production,[6],significantly reduced
same,viral production (infectious particles in supernatants),[7],significantly reduced
same,reduction of viral RNA levels compared to untreated cells,"[8]; 50 μM peptide, inoculum treated 1 h, adsorption 2 h, MOI of 1, peptide kept 48 h, hCMEC/D3, RT-qPCR",2 fold
same,antiviral activity in the absence of pretreatment,"[8]; 50 μM, virus and peptide added simultaneously to the cell culture, hCMEC/D3",also detected
same,IC50,[8],53 ± 13 µM
same,reduction of syncytium formation / fusion,[10]; 50 μM,40%

# Reference: paper PMC9603178, “Human Claudin-Derived Peptides Block the Membrane Fusion Process of Zika Virus and Are Broad Flavivirus Inhibitors” (Microbiology Spectrum, 2022)
